Assay results reported in US9102648B1, “Bioavailable diacylhydrazine ligands for modulating the expression of exogenous genes via an ecdysone receptor complex” (Intrexon Corporation, priority 2003, dated 2015).

What was measured:
[1] = molecular target: GAL4 DBD (1-147)-CfEcR(DEF)/VP16AD-βRXREF-LmUSPEF (Choristoneura fumiferana, UniProt O77240); experiment: cell-based; conditions: for Fold Induction, 27-63 Assay, 3.3 uM: 3.3 uM ligand; for Fold Induction, 27-63 Assay, 3.3 uM / Fold Induction, 27-63 Assay, 33 uM: RLU ligand treated / RLU DMSO treated cells; for Fold Induction, 27-63 Assay, 3.3 uM / Fold Induction, 27-63 Assay, 33 uM / EC50: average of two wells; for Fold Induction, 27-63 Assay, 33 uM: 33 uM ligand; for 27-63 assay Rel Max FI: maximum fold induction at any concentration relative to that of GS-E ligand, CHO 27-63 cells; for EC50: read-out: 27-63 assay EC50, CHO 27-63 stable cell line, luciferase reporter
[2] = molecular target: GAL4 DBD-CfEcR(DEF)/VP16AD-MmRXRE (Choristoneura fumiferana, UniProt O77240); experiment: 13B3 Assay (CHO stable cell line, luciferase reporter); conditions: for Fold Induction, 13B3 Assay, 33 uM: 33 uM ligand; for Fold Induction, 13B3 Assay, 33 uM / Fold Induction, 13B3 Assay, 3.3 uM: RLU ligand treated / RLU DMSO treated cells; for Fold Induction, 13B3 Assay, 33 uM / Fold Induction, 13B3 Assay, 3.3 uM / EC50: average of two wells; for Fold Induction, 13B3 Assay, 3.3 uM: 3.3 uM ligand; for 13B3 assay Rel Max FI: maximum fold induction at any concentration relative to that of GS-E ligand, CHO 13B3 cells; for EC50: read-out: 13B3 EC50, CHO 13B3 stable cell line, luciferase reporter, 48 h
Procedure, shortened: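 Ligands dosed at 8 levels from 33 to 0.01 μM (DMSO stocks diluted 300-fold) onto the 13B3 CHO line carrying GAL4-DBD/CfEcR-DEF, VP16/MmRXR-DE and a GAL4-responsive luciferase gene.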

| Structure (SMILES) | Fold Induction, 27-63 Assay, 3.3 uM [1] | Fold Induction, 27-63 Assay, 33 uM [1] | 27-63 assay Rel Max FI [1] | EC50 [1] [nM] | Fold Induction, 13B3 Assay, 33 uM [2] | Fold Induction, 13B3 Assay, 3.3 uM [2] | 13B3 assay Rel Max FI [2] | EC50 [2] [nM] |
| --- | --- | --- | --- | --- | --- | --- | --- | --- |
| COc1cccc(C(=O)NN(C(=O)c2cccnc2Cl)C(C)(C)C)c1C [RG-100127] | 49 | 1239 | 0.689 | 6700 | 365 |  |  |  |
| COc1ccccc1C(=O)N(NC(=O)c1ccc2c(c1C)OCOC2)C(C)(C)C [RG-100216] | 53 | 1312 | 0.685 | 6970 | 8037 |  |  |  |
| COc1cc(C(=O)N(NC(=O)c2cccc(OC)c2C)C(C)(C)C)ccc1C [RG-100768] | 1738 | 1852 | 1.039 | 333 | 709 |  |  |  |
| COc1cc(C)ccc1C(=O)N(NC(=O)c1cccc(OC)c1C)C(C)(C)C [RG-100769] | 1595 | 1556 | 0.735 | 196 | 386 | 1014 | 0.685 | 337 |
| CCc1c(OC)cccc1C(=O)NN(C(=O)c1cc(OC)cc(OC)c1)C(C)(C)C [RG-100778] | 2159 | 2312 | 1.342 | 678 | 2344 |  |  |  |
| CC(C)(C)N(NC(=O)c1c(F)cccc1F)C(=O)c1cc(Cl)cc(Cl)c1 [RG-100801] | 1341 | 1244 | 0.936 | 2080 | 16 |  |  |  |
| CC(=O)c1cccc(C(=O)NN(C(=O)c2cc(C)cc(C)c2)C(C)(C)C)c1C [RG-100814] | 2441 | 2165 | 1.157 | 1500 | 1151 | 423 | 0.843 | 37900 |
| COc1cc(Cl)ccc1C(=O)N(NC(=O)c1cccc(OC)c1C)C(C)(C)C [RG-100848] | 1181 | 1151 | 0.765 | 322 | 578 | 3391 | 0.666 | 1640 |
| Cc1cc(C)cc(C(=O)N(NC(=O)c2ccc(CC#N)cc2)C(C)(C)C)c1 [RG-100875] | 34 | 1592 | 1.004 | 8920 | 1143 | 23 | 0.853 | 4020 |
| COc1cccc(C(=O)NN(C(=O)c2ccc(Cl)cc2F)C(C)(C)C)c1C [RG-100929] | 1080 | 988 | 0.770 | 1050 | 359 |  |  |  |
| CCc1ccc(C(=O)NN(C(=O)c2ccccc2[N+](=O)[O-])C(C)(C)C)cc1 [RG-101013] | 927 | 988 | 0.606 | 2140 | 406 | 1084 | 0.539 | 2260 |
| Cc1cc(C)cc(C(=O)N(NC(=O)c2ccc3c(c2)COCO3)C(C)(C)C)c1 [RG-101016] | 308 | 1347 | 0.703 | 4200 | 4693 |  |  |  |
| CCc1c(C(=O)NN(C(=O)c2cccc(C)c2)C(C)(C)C)ccc2c1OCCO2 [RG-101036] | 1721 | 1459 | 0.724 | 177 | 908 | 4582 | 0.545 | 223 |
| CC(C)(C)N(NC(=O)c1ccc2c(c1)OCO2)C(=O)c1ccc(F)cc1Cl [RG-101048] | 19 | 1453 | 0.708 | 8420 | 701 |  |  |  |
| COc1ccc(C(=O)NN(C(=O)c2ccc(F)cc2Cl)C(C)(C)C)cc1 [RG-101057] | 30 | 1008 | 0.648 | 6620 | 842 | 33 | 0.569 | 4970 |
| Cc1cc(C)cc(C(=O)N(NC(=O)c2cc3c(cc2C)OCO3)C(C)(C)C)c1 [RG-101088] | 6 | 1743 | 1.159 | 9950 | 1400 |  |  |  |
| Cc1cc(C)cc(C(=O)N(NC(=O)c2cc3c(cc2Cl)OCO3)C(C)(C)C)c1 [RG-101171] | 395 | 1357 | 0.877 | 4020 | 8453 |  |  |  |
| CCc1c(OC)cccc1C(=O)NN(C(=O)c1ccc(Cl)cc1OC)C(C)(C)C [RG-101218] | 1097 | 1223 | 0.645 | 128 | 1983 |  |  |  |
| COc1cccc(C(=O)NN(C(=O)c2cc(C)ccc2Cl)C(C)(C)C)c1Cl [RG-101248] | 146 | 1033 | 0.790 | 5040 | 415 |  |  |  |
| Cc1cc(C)cc(C(=O)N(NC(=O)c2ccc3c(c2Br)OCCO3)C(C)(C)C)c1 [RG-101340] | 1624 | 1549 | 0.964 | 240 | 879 | 675 | 0.364 | 106 |
| COc1cccc(C(=O)NN(C(=O)c2cc(C)cc(Br)c2)C(C)(C)C)c1C [RG-101353] | 3583 | 3835 | 1.168 | 266 | 718 | 1347 | 1.163 | 675 |
| COc1cccc(C(=O)NN(C(=O)c2cc(Cl)cc(Br)c2)C(C)(C)C)c1C [RG-101408] | 2445 | 1886 | 1.185 | 336 | 326 |  |  |  |
| Cc1cc(C)cc(C(=O)N(NC(=O)c2ccc3c(c2)OC(C)O3)C(C)(C)C)c1 (stereo not shown) [RG-101511] | 1421 | 1207 | 0.762 | 714 | 744 | 1912 | 0.811 | 794 |
